Source: ChEMBL document CHEMBL1208672, “Novel 8-arylated purines as inhibitors of glycogen synthase kinase” (Eur J Med Chem, 2010)

How the values were obtained:
[1] = target: T1, Cyclin-dependent kinase 5/CDK5 activator 1 (Homo sapiens) (UniProt Q00535+Q15078); assay: Inhibition of CDK5/p25 assessed as residual activity at 1 uM relative to control; type: protein-complex assay
[2] = target: Glycogen synthase kinase-3 alpha (Homo sapiens) (UniProt P49840); assay: Inhibition of human GSK3alpha assessed as residual activity at 1 uM relative to control
[3] = target: T2, Glycogen synthase kinase-3 beta (Homo sapiens, UniProt P49841)
Target sequence in this assay (P49841 whole entry): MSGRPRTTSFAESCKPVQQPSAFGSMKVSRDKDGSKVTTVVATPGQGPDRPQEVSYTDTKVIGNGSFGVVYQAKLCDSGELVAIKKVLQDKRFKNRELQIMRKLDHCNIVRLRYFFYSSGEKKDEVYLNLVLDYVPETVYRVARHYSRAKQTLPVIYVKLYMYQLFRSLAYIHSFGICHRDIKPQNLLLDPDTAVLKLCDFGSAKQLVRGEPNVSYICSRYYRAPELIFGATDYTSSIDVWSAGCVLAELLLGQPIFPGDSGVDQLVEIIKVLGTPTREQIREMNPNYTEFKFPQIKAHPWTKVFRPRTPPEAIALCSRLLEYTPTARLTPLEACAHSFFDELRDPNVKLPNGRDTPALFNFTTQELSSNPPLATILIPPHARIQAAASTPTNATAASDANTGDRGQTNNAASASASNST

[4] = target: Insulin-like growth factor 1 receptor (Homo sapiens) (UniProt P08069); assay: Inhibition of IGF1R assessed as residual activity at 10 uM relative to control
[5] = target: T1, Cyclin-dependent kinase 5/CDK5 activator 1 (Homo sapiens); assay: Inhibition of CDK5/p25 assessed as residual activity at 10 uM relative to control; type: protein-complex assay
[6] = target: Mitogen-activated protein kinase 8 (Homo sapiens) (UniProt P45983); assay: Inhibition of JNK1 assessed as residual activity at 10 uM relative to control
[7] = target: MAP kinase-activated protein kinase 2 (Homo sapiens) (UniProt P49137); assay: Inhibition of MAPKAPK2 assessed as residual activity at 10 uM relative to control
[8] = target: Casein kinase I isoform alpha (Homo sapiens) (UniProt P48729); assay: Inhibition of CK1alpha1 assessed as residual activity at 10 uM relative to control
[9] = target: T3, Tyrosine-protein kinase receptor TYRO3 (Homo sapiens) (UniProt Q06418); assay: Inhibition of TYRO3/SKY assessed as residual activity at 10 uM relative to control
T3 sequence (whole entry): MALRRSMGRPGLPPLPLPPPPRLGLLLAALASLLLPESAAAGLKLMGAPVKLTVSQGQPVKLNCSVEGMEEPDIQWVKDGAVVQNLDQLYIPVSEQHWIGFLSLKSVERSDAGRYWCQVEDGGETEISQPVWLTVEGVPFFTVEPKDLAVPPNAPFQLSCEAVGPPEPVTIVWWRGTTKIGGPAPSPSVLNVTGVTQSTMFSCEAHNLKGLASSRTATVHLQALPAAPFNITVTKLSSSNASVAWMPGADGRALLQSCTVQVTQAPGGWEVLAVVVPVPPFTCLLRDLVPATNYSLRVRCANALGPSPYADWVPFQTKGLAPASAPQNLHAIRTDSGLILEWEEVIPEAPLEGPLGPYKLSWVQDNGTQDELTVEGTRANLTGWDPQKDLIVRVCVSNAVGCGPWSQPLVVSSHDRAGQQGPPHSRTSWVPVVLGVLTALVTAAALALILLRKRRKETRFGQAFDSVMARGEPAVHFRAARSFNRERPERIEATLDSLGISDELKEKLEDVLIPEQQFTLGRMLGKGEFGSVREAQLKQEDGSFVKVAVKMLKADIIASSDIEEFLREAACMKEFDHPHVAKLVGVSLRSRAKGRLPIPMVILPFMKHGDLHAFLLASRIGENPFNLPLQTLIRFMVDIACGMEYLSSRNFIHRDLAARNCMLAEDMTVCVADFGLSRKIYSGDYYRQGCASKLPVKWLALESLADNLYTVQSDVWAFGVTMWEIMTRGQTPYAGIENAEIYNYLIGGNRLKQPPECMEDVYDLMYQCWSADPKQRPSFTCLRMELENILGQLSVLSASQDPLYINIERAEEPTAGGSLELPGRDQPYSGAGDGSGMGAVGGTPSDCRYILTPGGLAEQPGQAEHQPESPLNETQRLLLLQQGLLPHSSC

[10] = target: Casein kinase II subunit alpha (Homo sapiens) (UniProt P68400); assay: Inhibition of CK2alpha assessed as residual activity at 10 uM relative to control
[11] = target: T2, Glycogen synthase kinase-3 beta; assay: Inhibition of human GSK3-beta assessed as residual activity at 10 uM relative to control
Target sequence in this assay (P49841 whole entry, looked up): as the sequence (P49841 whole entry) above

[12] = target: Epidermal growth factor receptor (Homo sapiens) (UniProt P00533); assay: Inhibition of EGFR assessed as residual activity at 10 uM relative to control
[13] = target: Mitogen-activated protein kinase 3 (Homo sapiens) (UniProt P27361); assay: Inhibition of ERK1 at 10 uM relative to control; parameters: scale not given: the % may be the effect or the level left
Sequence of Mitogen-activated protein kinase 3 (Homo sapiens) (P27361 whole entry): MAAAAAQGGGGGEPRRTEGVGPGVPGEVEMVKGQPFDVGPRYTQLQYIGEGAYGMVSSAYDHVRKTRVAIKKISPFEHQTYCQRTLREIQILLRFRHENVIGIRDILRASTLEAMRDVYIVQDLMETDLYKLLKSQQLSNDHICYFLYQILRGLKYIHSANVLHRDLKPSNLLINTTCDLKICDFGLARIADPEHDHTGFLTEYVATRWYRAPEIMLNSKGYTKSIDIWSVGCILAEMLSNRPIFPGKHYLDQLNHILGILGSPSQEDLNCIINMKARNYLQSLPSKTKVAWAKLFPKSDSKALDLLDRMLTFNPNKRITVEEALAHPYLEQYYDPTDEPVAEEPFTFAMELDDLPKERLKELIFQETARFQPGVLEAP

Sequence of Glycogen synthase kinase-3 alpha (Homo sapiens) (P49840 2-483 limits assumed): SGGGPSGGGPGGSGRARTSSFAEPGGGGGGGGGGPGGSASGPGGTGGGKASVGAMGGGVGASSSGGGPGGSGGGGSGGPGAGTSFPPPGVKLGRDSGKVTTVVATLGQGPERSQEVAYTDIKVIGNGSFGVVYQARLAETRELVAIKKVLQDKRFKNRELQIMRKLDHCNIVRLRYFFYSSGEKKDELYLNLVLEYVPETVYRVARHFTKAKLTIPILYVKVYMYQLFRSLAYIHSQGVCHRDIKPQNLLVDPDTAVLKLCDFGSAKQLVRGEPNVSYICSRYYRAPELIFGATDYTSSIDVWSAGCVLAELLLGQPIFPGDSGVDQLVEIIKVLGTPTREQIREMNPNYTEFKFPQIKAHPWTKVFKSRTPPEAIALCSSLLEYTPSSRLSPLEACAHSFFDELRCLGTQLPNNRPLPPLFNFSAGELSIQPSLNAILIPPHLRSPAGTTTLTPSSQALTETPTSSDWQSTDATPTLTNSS
T1 sequence (Q00535 whole entry): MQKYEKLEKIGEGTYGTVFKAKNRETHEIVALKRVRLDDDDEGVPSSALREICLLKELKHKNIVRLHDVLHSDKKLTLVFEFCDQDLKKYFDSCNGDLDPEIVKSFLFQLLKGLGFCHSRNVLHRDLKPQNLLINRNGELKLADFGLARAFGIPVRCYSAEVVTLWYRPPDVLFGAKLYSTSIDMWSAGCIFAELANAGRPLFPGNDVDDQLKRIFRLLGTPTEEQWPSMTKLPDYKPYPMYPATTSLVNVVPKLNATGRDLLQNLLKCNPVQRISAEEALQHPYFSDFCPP
T1 sequence (Q15078 99-307 partner limits assumed): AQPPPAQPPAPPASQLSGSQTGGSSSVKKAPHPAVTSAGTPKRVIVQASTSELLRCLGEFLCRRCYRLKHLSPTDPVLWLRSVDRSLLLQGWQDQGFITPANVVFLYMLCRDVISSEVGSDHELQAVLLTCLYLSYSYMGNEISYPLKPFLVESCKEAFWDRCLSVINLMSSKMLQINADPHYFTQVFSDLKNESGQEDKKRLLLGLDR
Sequence of Casein kinase I isoform alpha (Homo sapiens) (P48729 2-337 limits assumed): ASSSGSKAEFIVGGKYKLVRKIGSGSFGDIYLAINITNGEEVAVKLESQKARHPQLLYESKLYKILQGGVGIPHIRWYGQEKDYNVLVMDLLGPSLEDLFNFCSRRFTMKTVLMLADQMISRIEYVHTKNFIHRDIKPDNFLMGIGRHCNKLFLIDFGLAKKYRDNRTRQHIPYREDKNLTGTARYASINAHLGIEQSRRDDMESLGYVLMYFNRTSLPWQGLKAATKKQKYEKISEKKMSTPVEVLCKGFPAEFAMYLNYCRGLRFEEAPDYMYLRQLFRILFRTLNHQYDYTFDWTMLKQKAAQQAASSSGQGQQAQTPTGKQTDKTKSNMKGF
Sequence of Casein kinase II subunit alpha (Homo sapiens) (P68400 whole entry, looked up): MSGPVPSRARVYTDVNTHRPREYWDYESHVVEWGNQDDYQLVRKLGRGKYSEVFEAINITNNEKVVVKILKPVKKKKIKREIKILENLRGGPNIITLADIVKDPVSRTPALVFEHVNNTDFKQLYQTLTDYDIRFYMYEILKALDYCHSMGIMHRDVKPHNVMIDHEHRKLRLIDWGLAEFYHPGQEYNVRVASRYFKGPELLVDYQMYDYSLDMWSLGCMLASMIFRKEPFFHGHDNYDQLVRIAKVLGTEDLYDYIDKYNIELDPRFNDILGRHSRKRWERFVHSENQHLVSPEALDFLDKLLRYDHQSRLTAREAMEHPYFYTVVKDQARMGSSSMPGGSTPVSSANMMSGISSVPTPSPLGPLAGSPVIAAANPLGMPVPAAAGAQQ
Sequence of Insulin-like growth factor 1 receptor (Homo sapiens) (P08069 31-736 limits assumed): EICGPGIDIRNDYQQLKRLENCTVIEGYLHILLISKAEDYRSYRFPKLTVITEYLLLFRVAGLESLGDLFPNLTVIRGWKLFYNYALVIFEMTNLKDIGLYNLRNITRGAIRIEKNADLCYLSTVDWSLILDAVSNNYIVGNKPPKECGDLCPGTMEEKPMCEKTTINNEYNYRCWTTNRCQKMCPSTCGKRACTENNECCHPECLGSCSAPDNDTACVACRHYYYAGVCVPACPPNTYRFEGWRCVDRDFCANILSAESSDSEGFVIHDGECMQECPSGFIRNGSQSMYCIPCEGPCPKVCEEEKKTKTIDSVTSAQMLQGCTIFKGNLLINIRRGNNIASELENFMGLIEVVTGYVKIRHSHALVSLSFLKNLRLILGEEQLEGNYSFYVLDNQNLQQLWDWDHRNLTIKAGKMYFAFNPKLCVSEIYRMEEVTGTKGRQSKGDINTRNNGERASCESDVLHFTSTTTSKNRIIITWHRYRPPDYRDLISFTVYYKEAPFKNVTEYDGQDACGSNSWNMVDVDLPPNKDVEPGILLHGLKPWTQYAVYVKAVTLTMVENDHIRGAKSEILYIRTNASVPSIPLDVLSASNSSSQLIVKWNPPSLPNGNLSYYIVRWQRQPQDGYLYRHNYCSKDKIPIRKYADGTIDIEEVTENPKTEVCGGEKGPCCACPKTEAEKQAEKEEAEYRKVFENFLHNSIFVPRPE
Sequence of Insulin-like growth factor 1 receptor (Homo sapiens) (P08069 741-1367 limits assumed): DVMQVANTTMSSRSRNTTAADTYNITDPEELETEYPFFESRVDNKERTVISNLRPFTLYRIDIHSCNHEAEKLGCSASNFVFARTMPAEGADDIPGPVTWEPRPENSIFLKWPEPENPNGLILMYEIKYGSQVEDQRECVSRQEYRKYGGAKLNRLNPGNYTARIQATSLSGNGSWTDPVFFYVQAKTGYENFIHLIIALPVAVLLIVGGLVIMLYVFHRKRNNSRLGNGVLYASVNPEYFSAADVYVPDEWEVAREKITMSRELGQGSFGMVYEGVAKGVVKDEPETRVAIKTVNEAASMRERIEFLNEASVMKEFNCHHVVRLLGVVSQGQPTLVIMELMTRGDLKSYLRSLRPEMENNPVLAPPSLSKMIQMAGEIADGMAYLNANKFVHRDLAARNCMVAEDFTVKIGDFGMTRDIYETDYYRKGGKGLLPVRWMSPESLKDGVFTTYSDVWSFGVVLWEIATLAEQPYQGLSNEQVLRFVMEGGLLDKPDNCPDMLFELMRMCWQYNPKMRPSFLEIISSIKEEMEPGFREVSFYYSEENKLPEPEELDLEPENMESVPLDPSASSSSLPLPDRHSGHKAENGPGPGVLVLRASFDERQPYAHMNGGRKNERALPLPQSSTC
Sequence of MAP kinase-activated protein kinase 2 (Homo sapiens) (P49137 whole entry, looked up, canonical isoform): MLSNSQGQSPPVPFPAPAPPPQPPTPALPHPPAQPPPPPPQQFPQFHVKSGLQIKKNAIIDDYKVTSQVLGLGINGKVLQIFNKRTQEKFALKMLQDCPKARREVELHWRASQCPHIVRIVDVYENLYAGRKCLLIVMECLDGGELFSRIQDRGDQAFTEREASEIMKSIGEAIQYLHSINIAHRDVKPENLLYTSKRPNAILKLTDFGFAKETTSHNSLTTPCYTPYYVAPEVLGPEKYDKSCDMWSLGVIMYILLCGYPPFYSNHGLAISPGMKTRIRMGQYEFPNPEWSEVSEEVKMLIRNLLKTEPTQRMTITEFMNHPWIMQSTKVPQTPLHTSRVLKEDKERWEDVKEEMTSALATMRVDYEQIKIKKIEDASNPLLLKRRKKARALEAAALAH
Sequence of Mitogen-activated protein kinase 8 (Homo sapiens) (P45983 whole entry): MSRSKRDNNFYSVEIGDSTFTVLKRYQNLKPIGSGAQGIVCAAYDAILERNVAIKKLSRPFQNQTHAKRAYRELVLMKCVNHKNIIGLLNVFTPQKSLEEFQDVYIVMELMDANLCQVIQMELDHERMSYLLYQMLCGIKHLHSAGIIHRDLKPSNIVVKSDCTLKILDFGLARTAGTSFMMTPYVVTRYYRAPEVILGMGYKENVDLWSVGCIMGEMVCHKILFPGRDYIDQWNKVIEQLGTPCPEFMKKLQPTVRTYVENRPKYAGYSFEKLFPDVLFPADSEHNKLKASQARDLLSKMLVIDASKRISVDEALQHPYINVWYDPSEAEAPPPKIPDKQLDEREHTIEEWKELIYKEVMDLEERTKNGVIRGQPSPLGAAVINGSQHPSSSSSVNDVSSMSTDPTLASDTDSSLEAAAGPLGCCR

## COc1ccc(CNc2ncnc3nc(-c4cccc(F)c4)n(C)c23)cc1
[1]
  Activity: 99%

## CCCCC(=O)Nc1ncnc2[nH]c(-c3ccccc3)nc12
[1]
  Activity: 103%

## O=C(Nc1ncnc2[nH]c(/C=C/c3ccccc3)nc12)c1cccc(Br)c1
[2]
  Activity: 92%
[1]
  Activity: 101%

## c1ccc(-c2nc3c(NCc4cccnc4)ncnc3[nH]2)cc1
[1]
  Activity: 84%

## CC(C)C(=O)Nc1ncnc2[nH]c(-c3ccccc3)nc12
[1]
  Activity: 99%

## Cn1c(-c2ccccc2)nc2c(N3CCCC3)ncnc21
[1]
  Activity: 100%

## Cn1c(-c2cccc(F)c2)nc2c(NC(=O)C3CC3)ncnc21
[1]
  Activity: 99%

## c1ccc(Nc2ncnc3nc(-c4ccccc4)[nH]c23)cc1
[3]
  IC50: 16 nM

## COc1ccc(C(=O)Nc2ncnc3[nH]c(/C=C/c4ccccc4)nc23)cc1
[2]
  Activity: 96%
[1]
  Activity: 104%

## c1ccc(Nc2ncnc3[nH]c(-c4ccccc4)nc23)cc1
[2]
  Activity: 5%
[4]
  Activity: 96.2%
[5]
  Activity: 59.8%
[6]
  Activity: 93.3%
[7]
  Activity: 78.2%
[8]
  Activity: 100%
[9]
  Activity: 96.7%
[10]
  Activity: 77%
[1]
  Activity: 63%
[11]
  Activity: 18.6%
[12]
  Activity: 32.7%
[13]
  Activity: 110%

## c1ccc(-c2nc3c(OC4CCCC4)ncnc3[nH]2)cc1
[1]
  Activity: 54%

## C(=C\c1nc2c(Nc3ccccc3)ncnc2[nH]1)/c1ccccc1
[2]
  Activity: 58%
[1]
  Activity: 100%

## COc1ccc(CNc2ncnc3c2nc(-c2ccccc2)n3C)cc1
[1]
  Activity: 100%

## c1cncc(-c2nc3c(OC4CCCC4)ncnc3[nH]2)c1
[2]
  Activity: 57%
[1]
  Activity: 83%

## COc1ccc(CNc2ncnc3c2nc(-c2cccc(F)c2)n3C)cc1
[1]
  Activity: 96%

## O=C(Nc1ncnc2nc(-c3ccc4ccccc4c3)[nH]c12)C1CC1
[3]
  IC50: 169 nM

## COc1ccc(CNc2ncnc3nc(-c4ccc(Cl)cc4)n(C)c23)cc1
[1]
  Activity: 105%

## Cn1c(-c2cccc(F)c2)nc2c(NCc3ccccc3)ncnc21
[1]
  Activity: 96%

## CCCCC(=O)Nc1ncnc2[nH]c(-c3ccc4ccccc4c3)nc12
[2]
  Activity: 31%
[3]
  IC50: > 20000 nM
[1]
  Activity: 102%

## c1cncc(-c2nc3c(N4CCOCC4)ncnc3[nH]2)c1
[1]
  Activity: 71%

## O=C(Nc1ncnc2[nH]c(-c3ccc4ccccc4c3)nc12)c1ccccc1
[2]
  Activity: 83%
[1]
  Activity: 100%

## N#Cc1cccc(-c2nc3ncnc(Nc4ccccc4)c3[nH]2)c1
[3]
  IC50: 26 nM

## O=C(Nc1ncnc2[nH]c(-c3ccc4ccccc4c3)nc12)C1CC1
[4]
  Activity: 100%
[5]
  Activity: 91.4%
[6]
  Activity: 99.2%
[7]
  Activity: 101%
[8]
  Activity: 91.9%
[9]
  Activity: 78.2%
[10]
  Activity: 59.5%
[1]
  Activity: 101%
[11]
  Activity: 18.4%
[12]
  Activity: 91.6%
[13]
  Activity: 99.4%

## COc1ccc(C(=O)Nc2ncnc3[nH]c(-c4cccc(Cl)c4)nc23)cc1
[2]
  Activity: 71%
[1]
  Activity: 102%

## C(=C\c1nc2c(NCc3cccnc3)ncnc2[nH]1)/c1ccccc1
[2]
  Activity: 84%
[1]
  Activity: 96%

## O=C(Nc1ncnc2[nH]c(-c3cccnc3)nc12)c1ccccc1
[2]
  Activity: 61%
[1]
  Activity: 102%

## Cn1c(-c2cccc(F)c2)nc2c(N3CCCC3)ncnc21
[1]
  Activity: 100%

## COc1ccc(C(=O)Nc2ncnc3[nH]c(-c4cccnc4)nc23)cc1
[2]
  Activity: 43%
[1]
  Activity: 107%

## N#Cc1cccc(-c2nc3c(NC(=O)c4ccccc4)ncnc3[nH]2)c1
[2]
  Activity: 69%
[1]
  Activity: 102%

## c1cncc(-c2nc3c(N4CCCC4)ncnc3[nH]2)c1
[1]
  Activity: 100%

## O=C(Nc1ncnc2[nH]c(-c3ccccc3)nc12)c1ccccc1
[2]
  Activity: 67%
[1]
  Activity: 102%
